From US11690818B2, “Drug containing liver targeting specific ligand and thyroid hormone receptor agonist” (priority 2018, dated 2023)

What was measured:
[1] = test system: db/db mice; assay: Example 4: bone mineral density and body weight of db/db mice; type: in vivo; details: Kylo-0100 13.5, Kylo-0101 48.4 μg/kg sc daily
Method: (§1) The mice needed to adapt to the environment before the experiment, and healthy mice were selected as test animals, and reared in IVC cages at a density of 5 animals/cage with the litter being changed twice a week.
The body weight was weighed twice a week, and the administration was carried out continuously for 21 days. […] The blood was collected by cardiac puncture, left to stand at room temperature for 2 hours, and centrifuged on a low temperature centrifuge at 3000 RPM for 10 minutes to collect serum, which was then stored in a −80° C. refrigerator for later use. The contents of total cholesterol (TC), low-density lipoprotein (LDL) and triglyceride (TG) in the serum were measured on a blood biochemical analyzer.
On the 18th day of the administration, the mice were intraperitoneally injected with the anesthetic (xylazine combined with ketamine, 10 ml/Kg, IP), and the bone mineral density and body fat ratio of the mice were measured on a bone density meter.

[2] = test system: db/db mice; assay: Example 4: serum TC, LDL and TG in db/db mice; type: in vivo; details: subcutaneous injection daily for 21 days, Kylo-0100 13.5, Kylo-0101 48.4, Kylo-0102 43.3, Kylo-0103 43.3 μg/kg, vs saline control group
Method: as §1
The body weight was weighed twice a week, and the administration was carried out continuously for 21 days. After the last administration, the mice were fasted overnight for 15-16 hours, sacrificed by CO2 anesthesia. The blood was collected by cardiac puncture, left to stand at room temperature for 2 hours, and centrifuged on a low temperature centrifuge at 3000 RPM for 10 minutes to collect serum, which was then stored in a −80° C. refrigerator for later use. The contents of total cholesterol (TC), low-density lipoprotein (LDL) and triglyceride (TG) in the serum were measured on a blood biochemical analyzer.

SMILES	bone mineral density (BMD) ([1]; 18th day of administration, vs saline control group)	effect on the body weight of mice ([1]; 21 days)	serum TC level reduction rate [2] [%]	serum TG level reduction rate [2] [%]	serum LDL level reduction rate [2] [%]
N[C@@H](Cc1cc(I)c(Oc2ccc(O)c(I)c2)c(I)c1)C(=O)O [Kylo-0100, triiodothyronine]	significantly lower than that of the saline control group	significant effect	34.68	42.55	–
CC(=O)NC1C(OCCCCC(=O)NCCCNC(=O)CCOCC(COCCC(=O)NCCCNC(=O)CCCCOC2OC(CO)C(O)C(O)C2NC(C)=O)(COCCC(=O)NCCCNC(=O)CCCCOC2OC(CO)C(O)C(O)C2NC(C)=O)NC(=O)CCCCCNC(=O)[C@H](Cc2cc(I)c(Oc3ccc(O)c(I)c3)c(I)c2)NC(=O)OC(C)(C)C)OC(CO)C(O)C1O (stereo partly shown) [Kylo-0103]	–	–	44.37	43.94	15.25
